System: Plasmodium falciparum
Experiment: GSK_TCMDC: Inhibition of Plasmodium falciparum 3D7 in whole erythrocytes, using parasite LDH activity as an index of growth.
Assay type: functional, organism-based
Details: not given

Compound	XC50
FC(F)(F)c1ccc(NC(=S)NC2CCC(CN3CCC(c4c[nH]c5ccccc45)CC3)CC2)cc1 (centres undefined)	0.726 µM

Same assay, conditions: Plasmodium falciparum, 3D7

Compound	XC50
CC(C)c1ccc2[nH]c(C(=O)NC3CCC(N4CCCc5ccc(C#N)cc5C4)CC3)cc2c1 (centres undefined)	1.09 µM
CCC[C@@H]([C@@H](CC1CCC(C)CC1)C(=O)N[C@@H](CCCCNC(=O)c1ccccn1)C(=O)Nc1nccs1)N(O)C=O (some centres undefined)	0.0513 µM
O=[N+]([O-])c1ccc(Nc2nc(NCc3ccccc3)nc(N/N=C/c3ccccc3[N+](=O)[O-])n2)cc1	0.157 µM
COc1ccc(-c2ccccc2CNC2Cc3ccccc3C2)cc1S(=O)(=O)NCCN1CCCC1	0.87 µM
Cc1ccccc1Nc1nc(NCCc2ccccc2)nc2ccccc12	1.26 µM
COCCNC(=O)C(CNC(=O)c1ccc2c(c1)OCO2)NC(=O)c1ccc(-c2ccccc2)cc1 (centres undefined)	0.974 µM
CN(C)c1cccc(NC(=O)N[C@H]2N=C(c3ccccc3)c3ccccc3N(CC(=O)N3CCCC3)C2=O)c1	0.254 µM
COc1ccc(-c2cccc(NC(=O)c3cccc(Cl)c3)c2)cc1CNC(C)C	0.721 µM
O=C(NCCCCCN1CCC(c2c[nH]c3ccccc23)CC1)c1ccc(-c2cccnc2)cc1	1.03 µM
CC(=O)c1cccc2c(NC(=O)Nc3ccc4nccc(N5CCN(C)CC5)c4c3)cccc12	0.4 µM
c1ccc(Oc2ccc(Nc3ccnc4cc(-c5ccc(CNCCN6CCOCC6)o5)ccc34)cc2)cc1	0.439 µM
COc1ccc(Cl)c(CC2c3cc(O)c(Cl)cc3CCN2C)c1 (centres undefined)	0.695 µM
NC(=O)c1cccc(Nc2nccc(Nc3ccc(Oc4ccc5ccccc5c4)cc3)n2)c1	0.81 µM
Cc1ccc(NC(=O)c2ccc(CN3CCCN(Cc4cccc(O)c4)CC3)cc2)cc1C	0.864 µM
CC1CCN(C(=O)CSc2nc(-c3ccc(C(C)C)cc3)no2)CC1	1.35 µM
Cc1ccc(-c2nc(Nc3ccncc3)c3ccccc3n2)s1	0.83 µM
FC(F)(F)c1ccc2[nH]c(-c3cccc(-c4ccc(CNCCc5ccncc5)cc4)c3)nc2c1	0.0989 µM
CCOc1cccc(C(=O)Nc2ccc(-c3nc4ccccc4[nH]3)cc2)c1	1.01 µM
COc1ccc(-n2nc(C)c3c2NC(=O)CC3c2ccccc2OCc2ccc(F)cc2)cc1 (centres undefined)	0.855 µM
CCOC(=O)c1c(C)n(C2CCCCC2)c2cc(Br)c(O)cc12	0.815 µM
Cc1[nH]c(C)c(-c2ccc(Oc3ccc(Cl)cc3)cc2)c(=O)c1Br	0.592 µM
Cc1[nH]c2ccccc2c1C(=O)C(C)Sc1nnc(-c2ccccc2Br)[nH]1 (centres undefined)	0.0348 µM
O=C1CSc2ccc(CNC3CCN(CCc4c(F)cnc5ccc(F)cc45)CC3)nc2N1	0.525 µM
COc1ccc(-c2cnc3ccc(NCc4ccc(S(N)(=O)=O)cc4)nn23)cn1	0.867 µM
CCC1CCCCN1S(=O)(=O)c1ccc(OC)c(N2CCN(C(=O)C(Cl)(Cl)Cl)CC2)c1 (centres undefined)	1.12 µM

Compound	XC50
c1cc(Nc2nc(-c3ccc(-c4csc(Nc5ccncc5)n4)cc3)cs2)ccn1	0.117 µM
CCc1nc(N)nc(N)c1-c1ccc2c(c1)CCCC2	0.196 µM
CC(=O)N[C@H](C(=O)Nc1ccc(-c2cccc(-c3nc4cccc(C)c4[nH]3)c2)cc1)C(C)C	1.09 µM
O=C(/C=C/c1ccc(Cl)c(Cl)c1)NCCCCCN1CCC(NC(=O)c2ccc3ccccc3c2)CC1	1.02 µM
CC(C)(C)CN1C(=O)C(c2ccccc2)(c2ccccc2)N=C1N	0.515 µM
CCN(CC)CCN(Cc1ccc(-c2ccc(C(F)(F)F)cc2)cc1)C(=O)Cn1c(CCc2cccc(F)c2F)nc(=O)c2ccc(C)cc21	0.668 µM
CC(C)CNCc1cccc(-c2ccc(CNc3ccc4ncccc4c3)cc2)c1	1.06 µM
CCOC(=O)c1ccc(OCCCCCCOc2ccc(Br)cc2)cc1	0.777 µM
COc1cc2c(cc1S(=O)(=O)c1ccc(NC(=O)c3ccc4ccccc4c3)cc1)CCN(C)CC2	0.797 µM
CCn1c(-c2nonc2N)nc2cnc(Oc3cccc(NC(=O)c4ccc(OCCN(C(C)C)C(C)C)cc4)c3)cc21	0.78 µM
c1ccc(CN2CCC(NCc3ccc(-c4cncc5ccccc45)cc3)CC2)cc1	0.877 µM
CCOC(=O)c1ccc(Nc2cc(Nc3ccc(C(=O)OCC)cc3)nc(C)n2)cc1	0.907 µM
COc1ccccc1N1CCN(CCCCNC(=O)c2ccc(NC(=O)c3ccc(C(F)(F)F)cc3)cc2)CC1	0.304 µM
CCOc1ccc(-c2nonc2NC(=O)c2ccccc2Cl)cc1OCC	0.742 µM
Cc1cc(N2Cc3ccccc3C2)nc(Nc2cccc(C#N)c2)n1	0.172 µM
CCCCC(NCC)c1ccc(OCCOc2ccc(C(CCCC)NCC)cc2)cc1 (centres undefined)	0.93 µM
O=C(CNc1ccc(Cl)c(S(=O)(=O)N2CCCC2)c1)Nc1ccc(Br)cc1F	0.321 µM
NC1CCCN(Cc2cccc(-c3ccc(-c4nc5ccccc5[nH]4)cc3)c2)C1 (centres undefined)	0.722 µM
Cn1c(-c2ccccc2)cc2c3c(N)nc(N)nc3ccc21	0.888 µM
O=C(Nc1ccc(C(=O)OCC(c2ccccc2)c2ccccc2)cc1)N[C@@H](Cc1ccc(O)cc1)C(=O)NC1CCN(Cc2ccc(O)cc2)C1 (some centres undefined)	0.782 µM
O=C(Nc1cccnc1)c1cc(-c2cccnc2)nc2ccc(Cl)cc12	1.06 µM
COc1cc2nc(N3CCC(c4ccccc4)CC3)nc(NCc3ccc(=O)[nH]c3)c2cc1OC	0.755 µM
O=C(NC1CC1)c1ccc(N2CCCC(COc3ccc4c(c3)CCCC4)C2)nc1 (centres undefined)	1.08 µM
CC(C)CCNC(=O)C1Cc2c([nH]c3ccc(Br)cc23)C2(CCN(CCc3ccccc3)CC2)N1 (centres undefined)	0.688 µM
CCOC(C(=O)OCC1CCCN(C)C1)(c1ccccc1)c1ccccc1 (centres undefined)	0.868 µM

Compound	XC50
NC1=NC(c2ccccc2)N(c2ccccc2)C(N)=N1 (centres undefined)	0.294 µM
CCN(CCS(C)(=O)=O)Cc1ccc(-c2ccc3ncnc(Nc4ccc(OCc5cccc(F)c5)c(Cl)c4)c3c2)o1	0.608 µM
COc1ccc2ncc(F)c(CCN3CC[C@@H](CNCc4cc(C)c5c(c4)OCCO5)C3)c2n1	0.89 µM
COc1ccc2ncc(Cl)c([C@H](O)CN3CCC(NCc4cc5c(cn4)OCCO5)CC3)c2c1	0.116 µM
CS(=O)(=O)Cc1ccc(Nc2nccc(-c3c(-c4cccc(NC(=O)C5CCCCC5)c4)nn4ncccc34)n2)cc1	0.201 µM
COc1ccc2[nH]c(C(=O)Nc3cccc(-c4ccc(CN(C)C)cc4)c3)cc2c1	0.908 µM
Cn1nccc1C(=O)NCCNCc1ccc(-c2ccc(-c3nc4ccccc4[nH]3)s2)cc1	0.559 µM
Cc1cc(NC(=O)c2ccc(S(=O)(=O)N(Cc3ccccc3)C(C)C)cc2)no1	0.847 µM
Cc1ccc(NC(=O)c2ccnc(N3CCN(c4ccncc4)CC3)c2)cc1F	0.873 µM
O=C(CCc1ccccc1)NC(c1ccc(Cl)cc1)c1ccc2cccnc2c1O (centres undefined)	0.847 µM
CC(C)(C)NCC(O)COc1ccc(Cl)cc1C1=NNC(=O)CC1 (centres undefined)	0.15 µM
CC(C)(C)c1ccc(CN2CCC(NC(=O)c3cc(-c4cccc(C(F)(F)F)c4)cs3)C2)cc1 (centres undefined)	0.805 µM
CC(C)NCc1ccc(-c2cccc(NC(=O)c3ccc(Cl)cc3)c2)cc1	0.289 µM
CCOC(=O)NC1=NC(=N)N(OCc2ccc(Cl)c(Cl)c2)C(C)(C)N1	0.0407 µM
N=C(N)NC(=O)Nc1cc(Cl)c(F)c(Cl)c1	0.635 µM
Nc1nc(N)c2c(ccc3nn(S(=O)(=O)N4CCCC4)cc32)n1	0.0966 µM
O=C(N[C@H]1CCN(Cc2ccc(OCCN3CCCC3)c(Cl)c2)C1)c1ccc(Cl)c(Cl)c1	0.921 µM
COc1ccc2nccc([C@@H](O)CN3CCC(NCc4cc5cccc(O)c5[nH]4)CC3)c2c1	0.836 µM
C[C@H]1CN(Cc2cccc(-c3cc(CNC(=O)c4cccc(CC5CCN(C)CC5)c4)ccc3F)c2)CCN1C	1.09 µM
COc1ccccc1C1CC(c2ccc(C)cc2)=NN1C(=O)c1ccccc1 (centres undefined)	0.886 µM
CC1(C)NC(N)=NC(=N)N1OCCCOc1ccccc1N	0.0032 µM
C=CCN1C(=O)C(C(C)=O)=C(O)C1c1ccccc1 (centres undefined)	0.0538 µM
CC(=O)Nc1nc(C(=O)Nc2ccc(-c3ccc(-c4nc5ccccc5[nH]4)cc3)cc2)cs1	0.15 µM
O=C(/C=C/c1ccc(Cl)c(Cl)c1)NCCCCCN1CCC(NC(=O)Nc2ccc(Oc3ccccc3)cc2)C1 (centres undefined)	0.594 µM
C=CCOC(=O)N1CCC(CNCc2cccc(-c3cccc(-c4nc5cccc(C)c5[nH]4)c3)c2)C1 (centres undefined)	0.109 µM

Compound	XC50
CNC(=O)c1ccc2nc(-c3ccc(-c4ccccc4)cc3)n(CC3CCN(CC4CCCC4)CC3)c2c1	0.0425 µM
Cc1cc(NCCC(=O)NCc2cccc(F)c2)nc(NCCc2ccc(F)cc2)n1	1.75 µM
COc1ccc2nc(C)cc(Nc3ccc(Oc4ccc5ccccc5c4)c(Cl)c3)c2c1	0.691 µM
CCc1c(CCNCCCCCCNCCc2ccc3c(c2C)OCO3)ccc2c1OCO2	0.608 µM
FC(F)(F)c1ccc(NC(=S)NC2CCC(CN3CCC(c4c[nH]c5ccccc45)CC3)CC2)cc1 (centres undefined)	0.392 µM
COc1cc2nc(N3CCC(CNC(=O)c4ccc(-c5ccc(C(=O)N(C)C)cc5OCCO)cc4)CC3)nc(N)c2cc1OC	0.645 µM
O=C(NCCCN1CCC(NC(=O)c2ccc(-c3cccnc3)cc2)CC1)c1ccc(Cl)c(Cl)c1	0.854 µM
CCCC(C)NC(=O)/C=C/c1ccccc1-c1cccc(OC)c1 (centres undefined)	1.25 µM
Cc1ccc(C)c2c1[nH]c1ccc(C3=NCCN3)cc12	0.497 µM
Cc1c[nH]c(CCNC(=O)c2cc(-c3ccc(Cl)cc3)cs2)n1	0.242 µM
COC(=O)c1c(C#N)c(OC)cc(O)c1CSC[C@@H](CN1CCCCC1)Nc1nc(-c2ccc([N+](=O)[O-])cc2)cs1	1.27 µM
O=S(=O)(c1c(Cl)cc(Cl)cc1Cl)N1CCCCC(c2ccc(Cl)cc2)=N1	0.402 µM
COc1cc(Cc2cnc(N)nc2N)ccc1OCc1cccc(Oc2ccccc2)c1	1.33 µM
CN(C)c1ccc(CN2CCC(CNC(=O)c3cc(-c4ccccc4Cl)cs3)C2)cc1 (centres undefined)	1.44 µM
Cc1cc(O)c(CNC2CCCCC2)cc1C	1.05 µM
O=C(NC1CCCCCC1)[C@@H]1CCCN1C(=O)c1ccc(O)c(-c2ccc(Cl)c(Cl)c2)c1	0.345 µM
O=C(N[C@@H](Cc1ccccc1)[C@H](O)CNC1CCCc2ccccc21)c1cc(C2CCCC2)cc(N2CCCC2=O)c1 (some centres undefined)	0.162 µM
O=C(Nc1ccc(S(=O)(=O)NCCCN2CCOCC2)cc1)c1cc(-c2ccccc2)[nH]n1	0.769 µM
Cc1nn(-c2ccc(Cl)cc2)c2[nH]c(CN3CCN(c4cccc(Cl)c4)CC3)cc(=O)c12	0.24 µM
CCCCCn1c(Sc2ccc(C#N)c([N+](=O)[O-])c2)nnc1-c1ccc(Cl)cc1	1.08 µM
CN1CCCC(COc2cc3c(cc2Br)CCN3C(=O)Nc2ccc(-c3ccncc3)c(Cl)c2)C1 (centres undefined)	0.234 µM
Clc1ccc2c(NN=Cc3ccco3)ccnc2c1	1.1 µM
COc1cc2ccccc2cc1OCCCN1CCN(CC(c2ccc(F)cc2)N2CCN(C(C)C)CC2)CC1 (centres undefined)	0.749 µM

— ChEMBL document CHEMBL1157539, “Thousands of chemical starting points for antimalarial lead identification” (Nature, 2010)
